Earlier results, collected in US8071619B2, “Injectable liquid formulation of paracetamol” (priority 2003, dated 2011).

Conditions: aqueous solution; K. T. Koshy et al., 1961

CC(=O)Nc1ccc(O)cc1 [paracetamol, N-(4-hydroxy-phenyl)acetamide]
pH at which the rate of degradation of paracetamol is minimal: ~6
